# Data reported in publication PMC5703498, “Plant-type phytoene desaturase: Functional evaluation of structural implications” (PLoS ONE, 2017).
# Key:
# [1] = target: T1, Phytoene desaturase (OsPDS-His6) (Oryza sativa, UniProt A2XDA1, R300S); assay: liposome-based desaturase assay with purified mutant, DPQ x NFZ matrix, competitive inhibition fit; assay type: biochemical
# T1 construct: gene PDS1
# [2] = target: T2, Phytoene desaturase (OsPDS-His6) (Oryza sativa, UniProt A2XDA1); assay: liposome-based desaturase assay with purified enzyme, competitive inhibition fit against DPQ, HPLC; assay type: biochemical
# T2 construct: gene PDS1
# T2 sequence (A2XDA1 88-578): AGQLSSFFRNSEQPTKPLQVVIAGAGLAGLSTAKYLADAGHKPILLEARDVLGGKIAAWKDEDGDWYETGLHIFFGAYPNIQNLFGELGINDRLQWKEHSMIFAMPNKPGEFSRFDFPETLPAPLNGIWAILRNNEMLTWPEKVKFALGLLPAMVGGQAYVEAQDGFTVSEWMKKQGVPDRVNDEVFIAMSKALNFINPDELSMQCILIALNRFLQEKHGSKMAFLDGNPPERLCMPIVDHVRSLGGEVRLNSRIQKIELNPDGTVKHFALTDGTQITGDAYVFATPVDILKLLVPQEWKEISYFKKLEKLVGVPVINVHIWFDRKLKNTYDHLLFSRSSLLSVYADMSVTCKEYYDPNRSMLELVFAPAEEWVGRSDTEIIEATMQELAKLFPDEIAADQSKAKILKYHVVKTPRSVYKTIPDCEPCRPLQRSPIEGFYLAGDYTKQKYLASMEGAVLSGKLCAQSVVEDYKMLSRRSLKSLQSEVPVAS
# T1 sequence (A2XDA1 88-578 R300S): as the sequence (A2XDA1 88-578) above, with R213S counted along it
structure (smiles),measurement,setting,value
"CNc1cnn(-c2cccc(C(F)(F)F)c2)c(=O)c1Cl [NFZ, norflurazon]",Ki,[1],1110 ± 360 µM
same,Ki,[2],230 ± 30 µM
